Our source for the IC50 and Inhibitory activity values is ChEMBL document CHEMBL1132090, “Synthesis of a phostone glycomimetic of the endothelin converting enzyme inhibitor phosphoramidon” (Bioorg Med Chem Lett, 1999).

For experiment [1], the target named is T1, Endothelin-converting enzyme 1 (Homo sapiens, UniProt P42892).
T1 sequence (P42892 whole entry): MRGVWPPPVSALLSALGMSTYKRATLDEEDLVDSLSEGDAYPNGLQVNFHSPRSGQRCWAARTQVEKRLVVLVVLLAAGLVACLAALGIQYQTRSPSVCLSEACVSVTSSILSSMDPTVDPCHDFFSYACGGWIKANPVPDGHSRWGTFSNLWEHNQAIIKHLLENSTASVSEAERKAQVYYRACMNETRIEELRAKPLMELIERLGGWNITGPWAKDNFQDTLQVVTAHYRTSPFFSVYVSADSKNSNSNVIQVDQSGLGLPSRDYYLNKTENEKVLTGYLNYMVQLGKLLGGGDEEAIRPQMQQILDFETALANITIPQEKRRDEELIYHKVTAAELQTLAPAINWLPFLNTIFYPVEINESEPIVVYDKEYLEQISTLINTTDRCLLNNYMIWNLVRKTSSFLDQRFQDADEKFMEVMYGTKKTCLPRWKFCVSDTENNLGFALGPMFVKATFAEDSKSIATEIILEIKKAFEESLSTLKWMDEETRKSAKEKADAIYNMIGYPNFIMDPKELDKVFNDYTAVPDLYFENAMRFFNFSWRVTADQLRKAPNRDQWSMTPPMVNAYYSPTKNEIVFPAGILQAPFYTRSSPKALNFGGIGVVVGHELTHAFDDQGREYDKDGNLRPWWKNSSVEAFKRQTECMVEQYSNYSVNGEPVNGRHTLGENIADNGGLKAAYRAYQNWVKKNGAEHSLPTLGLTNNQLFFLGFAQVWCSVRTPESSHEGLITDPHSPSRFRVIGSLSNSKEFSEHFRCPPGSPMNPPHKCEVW
Nature of the experiment: Concentration required to inhibit conversion of […] after deprotection and purification by reverse-phase HPLC. The format is functional.

Experiment [2] is described as follows: Inhibitory activity against thermolysin induced by big ET-1 which inhibited hypertensive effect; active. The format is functional.

Each structure is given as a SMILES string. Calls of active or inactive are those of the source. No cut-off for these calls is given here.

For orientation: IC50 means the concentration that inhibits the measured activity by half. As to `CC(C)C[C@H](NP1(=O)OC(C)C(O)C(O)C1O)C(=O)N[C@@H](Cc1c[nH]c2ccccc12)C(=O)O` (some centres not stated), the IC50 in experiment [1] turned out to be 5.05 µM. This counts as single-digit micromolar. As for `CC(C)C[C@H](NP(=O)(O)OC1OC(C)C(O)C(O)C1O)C(=O)N[C@@H](Cc1c[nH]c2ccccc12)C(=O)O` (some centres not stated), the Inhibitory activity entry in experiment [2] was “Active”.
